For assay [1], the system named is ZIKV-RLuc (Cambodian strain FSS13025). The assay is described as follows: microbe, parasite or virus in culture. It is filed as cell-based, Zika virus. The settings on record: for AC50: Zika virus, Vero.
[2] abbreviates: read-out: Log AC50 (M) (converted).

Read-outs that look alike come from different tables or passages of the source.

The AC50 is the midpoint of the concentration-response curve, whichever way the signal moves. As for `CC(C)C[C@H](NC(=O)[C@H](CCc1ccccc1)NC(=O)CN1CCOCC1)C(=O)N[C@@H](Cc1ccccc1)C(=O)N[C@@H](CC(C)C)C(=O)[C@@]1(C)CO1` [NCGC00249613-01], in assay [1], the “CC-v2 (curve class classification v2 of the dose response curve)” value (“CC-v2” below) is on record as -1.1; the “Efficacy (difference between neutral response and maximum compound response)” value is -103.056; the “Max Resp (difference between neutral response and compound response for highest compound concentration)” value was -99.72; half-maximal activity (AC50) was put at 2.33e-06 M. The AC50 in assay [1] (setting [2]) was 2.33e-06 M. Moreover, in the assay with Vero cells, the AC50 was determined as 2.33 µM and the “Log AC50 (M)” value was -5.6327 M.

For `CCN1CCN(CC(=O)Nc2ccc(-c3cccc4c(=O)cc(N5CCOCC5)oc34)c3sc4ccccc4c23)CC1` [NCGC00250387-03], in assay [1], the “CC-v2” value is on record as -2.4; the “Efficacy (difference between neutral response and maximum compound response)” value was -68.382; the “Max Resp (difference between neutral response and compound response for highest compound concentration)” value was -59.211; the half-maximal activity concentration (AC50) was 2.33e-05 M. Further, the AC50 in assay [1] (setting [2]) was 2.33e-05 M. Also, in the assay with Vero cells, the activity was half-maximal at 23.3 µM (AC50) and the “Log AC50 (M)” value is -4.6327 M.

On to `CC(C)(C)OC(=O)Nc1ccc(-c2cc(C(=O)NCCCCCCC(=O)NO)no2)cc1` [NCGC00250390-04], for which, in assay [1], the “CC-v2” value is -2.2; the “Efficacy (difference between neutral response and maximum compound response)” value was -83.763; the “Max Resp (difference between neutral response and compound response for highest compound concentration)” value is -67.554; the AC50 amounted to 2.09e-06 M. The AC50 in assay [1] (setting [2]) was 2.09e-06 M. Moreover, in the assay with Vero cells, the AC50 turned out to be 2.09 µM and the “Log AC50 (M)” value is -5.6796 M.

As for `CC[C@@H]1C(=O)N(C)c2cnc(Nc3ccc(C(=O)NC4CCN(C)CC4)cc3OC)nc2N1C1CCCC1` [NCGC00253438-01], in assay [1], the “CC-v2” value is given as -1.1; the “Efficacy (difference between neutral response and maximum compound response)” value was -120.006; the “Max Resp (difference between neutral response and compound response for highest compound concentration)” value was -99.011; the activity was half-maximal at 2.33e-06 M (AC50). For the same compound, the AC50 in assay [1] (setting [2]) is 2.33e-06 M. Further, in the assay on Vero cells, the AC50 stood at 2.33 µM and the “Log AC50 (M)” value is on record as -5.6327 M.

For the compound `NC(=O)C1(N2CCCCC2)CCN(CCCN2c3ccccc3CCc3ccc(Cl)cc32)CC1` [NCGC00253595-01], in assay [1], the “CC-v2” value is listed as -3; the “Efficacy (difference between neutral response and maximum compound response)” value is reported as -112.083; the “Max Resp (difference between neutral response and compound response for highest compound concentration)” value was -100.465; the AC50 came to 2.61e-05 M. For the same compound, in assay [1] (setting [2]), the AC50 is 2.61e-05 M. Besides, the “Log AC50 (M)” value in the assay on Vero cells is -4.5827 M.

As to `C/C=C(/C)C(=O)O[C@H]1C(C)=C2[C@H]([C@@H]1OC(=O)CCCCCCC)[C@@](C)(OC(C)=O)C[C@H](OC(=O)CCC)[C@@]1(O)[C@H]2OC(=O)[C@@]1(C)O` [NCGC00261947-01], in assay [1], the “CC-v2” value is -1.2; the “Efficacy (difference between neutral response and maximum compound response)” value is on record as -69.727; the “Max Resp (difference between neutral response and compound response for highest compound concentration)” value is on record as -98.941; the activity was half-maximal at 3.29e-06 M (AC50). For the same compound, in assay [1] (setting [2]), the AC50 was 3.29e-06 M. In the assay with Vero cells, the AC50 amounted to 3.29 µM and the “Log AC50 (M)” value was -5.4827 M.

In the case of `Cc1ccc(C(N)=O)cc1Nc1nccc(-c2cn(C(C)C)c3cnccc23)n1` [NCGC00263020-01], in assay [1], the “CC-v2” value is given as -1.1; the “Efficacy (difference between neutral response and maximum compound response)” value is -104.089; the “Max Resp (difference between neutral response and compound response for highest compound concentration)” value is reported as -98.725; half-maximal activity (AC50) was put at 7.37e-06 M. Also, in assay [1] (setting [2]), the AC50 was 7.37e-06 M. Further, in the assay on Vero cells, the AC50 worked out at 7.37 µM and the “Log AC50 (M)” value was -5.1327 M.

`Cc1nc2cnc3ccc(C#Cc4cccnc4)cc3c2n1-c1ccc(C(C)(C)C#N)cc1` [NCGC00263088-01]: in assay [1], the “CC-v2” value is reported as -1.1; the “Efficacy (difference between neutral response and maximum compound response)” value is given as -103.241; the “Max Resp (difference between neutral response and compound response for highest compound concentration)” value is -92.032; the AC50 is 5.85e-06 M. In assay [1] (setting [2]), the AC50 is 5.85e-06 M. Further, in the assay on Vero cells, the activity was half-maximal at 5.85 µM (AC50) and the “Log AC50 (M)” value is given as -5.2327 M.

On to `COc1cc(OC2CCN(C)CC2)ccc1Nc1ncc2c(n1)n(C1CCCC1)c(=O)n2C` [NCGC00263090-01], for which, in assay [1], the “CC-v2” value was -1.2; the “Efficacy (difference between neutral response and maximum compound response)” value was -50.634; the “Max Resp (difference between neutral response and compound response for highest compound concentration)” value is reported as -54.42; the AC50 turned out to be 6.76e-06 M. Moreover, the AC50 in assay [1] (setting [2]) was 6.76e-06 M. In the assay with Vero cells, the AC50 was 6.76 µM and the “Log AC50 (M)” value is -5.1699 M.

As for `CC(=O)N(C)C1(c2ccccc2)CCN(CCC[C@]2(c3ccc(Cl)c(Cl)c3)CCCN(C(=O)c3ccccc3)C2)CC1` [NCGC00263110-01], in assay [1], the “CC-v2” value was -2.1; the “Efficacy (difference between neutral response and maximum compound response)” value was -124.29; the “Max Resp (difference between neutral response and compound response for highest compound concentration)” value is -100.789; the half-maximal activity concentration (AC50) amounted to 1.85e-05 M. Further, in assay [1] (setting [2]), the AC50 was 1.85e-05 M. Further, in the assay on Vero cells, the activity was half-maximal at 18.5 µM (AC50) and the “Log AC50 (M)” value was -4.7327 M.

On to `C[C@@H](Oc1cc(-n2cnc3ccc(CN4CCN(C)CC4)cc32)sc1C(N)=O)c1ccccc1C(F)(F)F` [NCGC00263112-01], for which, in assay [1], the “CC-v2” value is -2.1; the “Efficacy (difference between neutral response and maximum compound response)” value is -113.144; the “Max Resp (difference between neutral response and compound response for highest compound concentration)” value is -99.466; the activity was half-maximal at 6.76e-06 M (AC50). Moreover, the AC50 in assay [1] (setting [2]) is 6.76e-06 M. In the assay with Vero cells, the AC50 came to 6.76 µM and the “Log AC50 (M)” value is on record as -5.1699 M.

As for `CC(=O)c1c(C)c2cnc(Nc3ccc(N4CCNCC4)cn3)nc2n(C2CCCC2)c1=O` [NCGC00263129-04], in assay [1], the “CC-v2” value is on record as -2.2; the “Efficacy (difference between neutral response and maximum compound response)” value is recorded as -88.43; the “Max Resp (difference between neutral response and compound response for highest compound concentration)” value is listed as -70.898; the activity was half-maximal at 1.65e-05 M (AC50). Further, the AC50 in assay [1] (setting [2]) was 1.65e-05 M. Moreover, in the assay on Vero cells, the activity was half-maximal at 16.5 µM (AC50) and the “Log AC50 (M)” value is reported as -4.7827 M.

On to `Nc1nc(Nc2ccc([S+](N)(=O)[O-])cc2)nn1C(=O)c1c(F)cccc1F` [NCGC00263151-01], for which, in assay [1], the “CC-v2” value is on record as -2.1; the “Efficacy (difference between neutral response and maximum compound response)” value is -94.324; the “Max Resp (difference between neutral response and compound response for highest compound concentration)” value is recorded as -90.046; the AC50 was 1.65e-05 M. In addition, in assay [1] (setting [2]), the AC50 is 1.65e-05 M. Also, in the assay on Vero cells, the AC50 worked out at 16.5 µM and the “Log AC50 (M)” value was -4.7827 M.

For the compound `Cc1ccc(C(=O)Nc2ccc(CN3CCN(C)CC3)c(C(F)(F)F)c2)cc1C#Cc1cnc2cccnn12` [NCGC00263152-01], in assay [1], the “CC-v2” value is reported as -1.1; the “Efficacy (difference between neutral response and maximum compound response)” value is listed as -88.579; the “Max Resp (difference between neutral response and compound response for highest compound concentration)” value was -98.949; the AC50 was 1.85e-06 M. In addition, the AC50 in assay [1] (setting [2]) is 1.85e-06 M. In the assay with Vero cells, the AC50 came to 1.85 µM and the “Log AC50 (M)” value is reported as -5.7327 M.

Turning to `CC(=O)Nc1ccc([C@H](C)C(=O)Nc2ncc(C(C)C)s2)cc1` [NCGC00263191-01], in assay [1], the “CC-v2” value is recorded as -1.1; the “Efficacy (difference between neutral response and maximum compound response)” value was -109.113; the “Max Resp (difference between neutral response and compound response for highest compound concentration)” value is -98.511; the activity was half-maximal at 2.33e-06 M (AC50). Further, the concentration at half-maximal activity (AC50) in assay [1] (setting [2]) was 2.33e-06 M. Also, in the assay on Vero cells, the activity was half-maximal at 2.33 µM (AC50) and the “Log AC50 (M)” value is recorded as -5.6327 M.

For `C/C=C1\NC(=O)[C@H]2CSSCC/C=C\[C@H](CC(=O)N[C@H](C(C)C)C(=O)N2)OC(=O)[C@H](C(C)C)NC1=O` [NCGC00263220-05], in assay [1], the “CC-v2” value is -1.1; the “Efficacy (difference between neutral response and maximum compound response)” value was -96.055; the “Max Resp (difference between neutral response and compound response for highest compound concentration)” value is listed as -99.405; the AC50 came to 2.33e-07 M. The AC50 in assay [1] (setting [2]) was 2.33e-07 M. In the assay on Vero cells, the activity was half-maximal at 0.233 µM (AC50) and the “Log AC50 (M)” value is listed as -6.6327 M.

Regarding `CCOC(CN1C(=O)[C@](CC(=O)Nc2ccc(C)cc2)(NC(=O)Nc2ccc(C)cc2)c2ccccc21)OCC` [NCGC00263225-01], in assay [1], the “CC-v2” value is on record as -2.1; the “Efficacy (difference between neutral response and maximum compound response)” value is -106.258; the “Max Resp (difference between neutral response and compound response for highest compound concentration)” value is recorded as -97.88; half-maximal activity (AC50) was put at 2.33e-05 M. Further, in assay [1] (setting [2]), the AC50 was 2.33e-05 M. In the assay with Vero cells, the AC50 was 23.3 µM and the “Log AC50 (M)” value is given as -4.6327 M.

Turning to `Nc1ccc(C(=O)c2cc3c(ccc4ccccc43)[nH]2)cc1` [NCGC00263233-01], in assay [1], the “CC-v2” value was -2.1; the “Efficacy (difference between neutral response and maximum compound response)” value is recorded as -115.821; the “Max Resp (difference between neutral response and compound response for highest compound concentration)” value is -99.398; the AC50 was 2.08e-05 M. Further, the AC50 in assay [1] (setting [2]) is 2.08e-05 M. Moreover, in the assay with Vero cells, the AC50 came out at 20.8 µM and the “Log AC50 (M)” value is reported as -4.6827 M.

For the compound `CN(C)c1ccc(C(=O)NCCCCCCC(=O)NO)cc1` [NCGC00263617-05], in assay [1], the “CC-v2” value is reported as -1.1; the “Efficacy (difference between neutral response and maximum compound response)” value is listed as -93.524; the “Max Resp (difference between neutral response and compound response for highest compound concentration)” value is on record as -92.631; the AC50 came out at 1.04e-05 M. In assay [1] (setting [2]), the AC50 is 1.04e-05 M. Besides, in the assay with Vero cells, the AC50 worked out at 10.4 µM and the “Log AC50 (M)” value is reported as -4.9827 M.

Regarding `CN1CCCC(CC2c3ccccc3Sc3ccccc32)C1.Cl` (stereo not shown) [NCGC00273481-01], in assay [1], the “CC-v2” value is -3; the “Efficacy (difference between neutral response and maximum compound response)” value is on record as -90.373; the “Max Resp (difference between neutral response and compound response for highest compound concentration)” value was -72.236; the AC50 stood at 3.69e-05 M. For the same compound, the AC50 in assay [1] (setting [2]) was 3.69e-05 M. In the assay on Vero cells, the AC50 amounted to 36.9 µM and the “Log AC50 (M)” value is given as -4.4327 M.

(Values after publication PMC8765781, “A platform of assays for the discovery of anti-Zika small-molecules with activity in a 3D-bioprinted outer-blood-retina model” (PLoS ONE, 2022).)
